21 compounds from patent US12617814B2, “Neuroactive steroids and methods of use thereof” (Sage Therapeutics, LLC, priority 2013, dated 2026) can be followed below.

Test [1] deals with T1, NMDA receptor (GRIN1/GRIN2A subunits) (Homo sapiens, UniProt Q05586+Q12879).
T1 construct: expressed in transfected cells
The test can be described thus: NMDA potentiation, whole-cell patch clamp of HEK cells expressing NMDA receptor. The format is cell-based. The settings on record: HEK cells, 30 μM NMDA and 5.0 μM Glycine; for activation at 0.1 µM: HEK293, 0.1 uM compound, read-out: NMDA 1a2A (%) Potentiation 0.1 uM; for activation at 1 µM: HEK293, 1 uM compound, read-out: NMDA 1a2A (%) Potentiation 1 uM. As to the method: (§1) NMDA potentiation was assessed using either whole cell patch clamp of mammalian cells which expressed NMDA receptors, or using two-electrode voltage clamp (TEVC) of Xenopus Laevis oocytes expressing NMDA receptors.
NMDA/Glycine peak and steady-state currents were recorded from stably transfected cells expressing the NMDA receptor and the modulatory effects of the test items on these currents were investigated.
Cells were stably transfected with human GRIN1 (variant NR1-3). These cells were transiently transfected (Lipofectamine™) with GRIN2A cDNA and CD8 (pLeu) antigene cDNA. About 24-72 hours following transfection 1 μl Dynabeads M-45 CD8 was added to identify successfully transfected cells (Jurman et al., Biotechniques (1994) 17:876-881). Cells were passaged to a confluence of 50-80%. Cells were seeded onto Poly-L-Lysine coated cover slips covered with culture complete medium in a 35 mm culture dish. Confluent clusters of cells are electrically coupled (Pritchett et al., Science (1988), 242:1306-8). Because responses in distant cells are not adequately voltage clamped and because of uncertainties about the extent of coupling (Verdoorn et al., Neuron (1990), 4:919-28), cells were cultivated at a density that enables single cells (without visible connections to neighboring cells) to be measured. Cells were incubated at 37° C. in a humidified atmosphere with 5% CO2 (rel. humidity about 95%). The cells were continuously maintained in and passaged in sterile culture flasks containing a 1:1 mixture of Dulbecco's modified eagle medium and nutrient mixture F-12 (D-MEM/F-12 1×, liquid, with L-Glutamine) supplemented with 9% fetal bovine serum and 0.9% Penicillin/Streptomycin solution. The complete medium was supplemented with 3.0 μg/ml Puromycin.
Whole cell currents were measured with HEKA EPC-10 amplifiers using PatchMaster software. Cell culture dishes for recordings were placed on the dish holder of the microscope and continuously perfused (1 ml/min) with “bath solution” (NaCl 137 mM, KCl 4 mM, CaCl2 1.8 mM, MgCl2 1 mM, HEPES 10 mM, D-Glucose 10 mM, pH (NaOH) 7.4). All solutions applied to cells including the pipette solution were maintained at room temperature (19° C.-30° C.). After formation of a Gigaohm seal between the patch electrodes and transfected individual HEK 293 cells (pipette resistance range: 2.5 MΩ-6.0 MΩ; seal resistance range: >1 GQ) the cell membrane across the pipette tip was ruptured to assure electrical access to the cell interior (whole-cell patch-configuration). At this point the bath solution is switched to “NMDA bath solution” (NaCl 137 mM, KCl 4 mM, CaCl2 2.8 mM, HEPES 10 mM, D-Glucose 10 mM, Cremophore 0.02%, pH (NaOH) 7.4). NMDA inward currents were measured upon application of 30 μM NMDA (and 5.0 μM Glycine) to patch-clamped cells (2 applications) for 5 s. The cells were voltage clamped at a holding potential of −80 mV. For the analysis of test articles, NMDA receptors were stimulated by 30 μM NMDA and 5.0 μM Glycine after sequential pre-incubation of increasing concentrations of the test article. Pre-incubation duration was 30 s. Stimulation duration was 5 s Test articles were dissolved in DMSO to form stock solutions of 0.1 mM and 1 mM. Test articles were diluted to 0.1 μM and 1 μM in “NMDA bath solution”. Both concentrations of test articles were tested on each cell. The same concentration was applied at least three times or until the steady state current amplitude was reached. Every day one cell was tested with 50 μM PREGS (positive control) using the same application protocol to test whether cells were successfully transfected with NMDA receptors.

Test [2] deals with NMDA receptor (GRIN1/GRIN2A) (Homo sapiens, UniProt Q05586+Q12879). The experiment in a line: NMDA potentiation, two electrode voltage clamp (TEVC) of Xenopus oocytes expressing NMDA receptor. The format is cell-based. The following applies: 10 μM compound, 3 μM Glutamate and Glycine. As to the method:
as §1
The Two Electrode Voltage Clamp (TEVC) technique was used to investigate the effects of compounds (10 μM) on the NMDA receptor (GRIN1/GRIN2A) expressed in Xenopus oocytes. Glutamate/Glycine peak and steady-state currents were recorded from oocytes that expressed the NMDA receptor and the modulatory effects of the test items on these currents were investigated.
Ovaries were harvested from Xenopus Laevis females that had been deeply anesthetized by cooling at 4° C. and immersion in Tricaine methanesulfonate (MS-222 at a concentration of 150 mg/L) in sodium bicarbonate (300 mg/L). Once anesthetized the animal was decapitated and pithed following the rules of animal rights from the Geneva canton. A small piece of ovary was isolated for immediate preparation while the remaining part was placed at 4° C. in a sterile Barth solution containing in mM NaCl 88, KCl 1, NaHCO3 2.4, HEPES 10, MgSO4·7H2O 0.82, Ca(NO3)2·4H2O 0.33, CaCl2·6H2O 0.41, at pH 7.4, and supplemented with 20 μg/ml of kanamycin, 100 unit/ml penicillin and 100 μg/ml streptomycin. All recordings were performed at 18° C. and cells were super-fused with medium containing in mM: NaCl 82.5, KCl 2.5, HEPES 5, CaCl2·2H2O, ·6H2O 1, pH 7.4.
Oocytes were injected with either cDNAs encoding for the human GRIN1 and GRIN2A subunits, using a proprietary automated injection device (Hogg et al., J. Neurosci. Methods, (2008) 169: 65-75) and receptor expression was assessed using electrophysiology at least two days later. The ratio of cDNA injection for GRIN1 and GRIN2A was 1:1. Electrophysiological recordings were made using an automated process equipped with standard TEVC and data were captured and analyzed using a proprietary data acquisition and analysis software running under Matlab (Mathworks Inc.). The membrane potential of the oocytes was maintained at −80 mV throughout the experiments. To explore the effects of proprietary compounds, currents were evoked by applying 3 μM Glutamate and […] Glycine for 10 s. Oocytes were then washed for 90 s before being exposed to the test article at a concentration of 10 μM for 120 s. Following this, 3 μM Glutamate and […] Glycine were immediately reapplied for 10 s. Potentiation of both the peak current and the steady state current was assessed. For statistical analysis values were computed either with Excel (Microsoft) or Matlab (Mathworks Inc.). To obtain mean measurements with standard deviations, all experiments were carried out using at least three cells.
Glutamate was prepared as a concentrated stock solution ([…]) in water and then diluted in the recording medium to obtain the desired test concentration. Glycine was prepared as a stock solution at 1 M in water. Compounds were prepared as stock solution ([…]) in DMSO and then diluted in the recording medium to obtain the desired test concentration.

T1 sequence (Q12879 23-1464, other chains not shown): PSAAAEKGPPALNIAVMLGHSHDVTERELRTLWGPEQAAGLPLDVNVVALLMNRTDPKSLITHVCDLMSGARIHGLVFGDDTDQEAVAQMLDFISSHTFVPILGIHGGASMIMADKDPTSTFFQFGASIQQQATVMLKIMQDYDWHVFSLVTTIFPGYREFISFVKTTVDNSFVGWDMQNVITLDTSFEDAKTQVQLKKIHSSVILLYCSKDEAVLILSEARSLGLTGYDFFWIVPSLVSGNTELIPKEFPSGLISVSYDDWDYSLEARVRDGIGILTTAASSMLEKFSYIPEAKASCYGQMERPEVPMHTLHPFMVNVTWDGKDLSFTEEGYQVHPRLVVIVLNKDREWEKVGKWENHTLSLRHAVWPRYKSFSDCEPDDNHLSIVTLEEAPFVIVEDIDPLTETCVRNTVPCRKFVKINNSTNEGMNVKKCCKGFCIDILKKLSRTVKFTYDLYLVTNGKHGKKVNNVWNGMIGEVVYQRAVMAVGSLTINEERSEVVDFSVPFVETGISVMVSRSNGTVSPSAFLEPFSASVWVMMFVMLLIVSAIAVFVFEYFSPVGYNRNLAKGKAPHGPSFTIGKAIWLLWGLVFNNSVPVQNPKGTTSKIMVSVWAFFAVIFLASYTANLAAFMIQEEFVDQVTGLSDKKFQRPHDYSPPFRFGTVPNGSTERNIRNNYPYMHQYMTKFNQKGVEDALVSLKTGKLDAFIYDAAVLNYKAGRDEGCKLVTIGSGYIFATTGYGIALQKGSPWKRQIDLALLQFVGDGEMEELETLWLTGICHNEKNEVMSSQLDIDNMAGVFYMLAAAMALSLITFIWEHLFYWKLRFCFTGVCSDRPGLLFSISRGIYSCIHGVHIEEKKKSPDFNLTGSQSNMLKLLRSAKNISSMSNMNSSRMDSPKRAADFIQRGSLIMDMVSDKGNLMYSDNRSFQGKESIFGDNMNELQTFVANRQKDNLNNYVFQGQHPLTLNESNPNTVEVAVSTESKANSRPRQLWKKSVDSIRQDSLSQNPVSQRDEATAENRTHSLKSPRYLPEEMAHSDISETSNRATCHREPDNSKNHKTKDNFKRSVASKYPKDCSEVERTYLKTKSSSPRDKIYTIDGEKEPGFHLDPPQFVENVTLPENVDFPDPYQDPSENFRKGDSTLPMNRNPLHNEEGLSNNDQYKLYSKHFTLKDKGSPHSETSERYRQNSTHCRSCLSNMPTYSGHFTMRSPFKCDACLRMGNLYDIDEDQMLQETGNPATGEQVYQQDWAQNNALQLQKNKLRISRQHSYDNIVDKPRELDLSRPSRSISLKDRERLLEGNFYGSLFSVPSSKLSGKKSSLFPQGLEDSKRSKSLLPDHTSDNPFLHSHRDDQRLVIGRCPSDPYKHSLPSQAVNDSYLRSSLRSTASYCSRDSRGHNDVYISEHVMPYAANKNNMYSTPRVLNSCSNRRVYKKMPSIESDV
Sequence of NMDA receptor (GRIN1/GRIN2A) (Q12879 23-1464, other chains not shown): as above

In the case of `CC(CCC(C)(C)O)[C@H]1CC[C@H]2[C@@H]3CC[C@H]4C[C@@](C)(O)CC[C@]4(C)[C@H]3CC[C@]12C` (stereo partly shown) [Comparison compound 3, reference compound], in test [1], the activation at 0.1 µM fell in the range of 75 to 150% and the activation at 1 µM is 150 to 250%.
For `C[C@H](CC[C@@H](O)C(F)(F)F)[C@H]1CC[C@H]2[C@@H]3CC=C4C[C@@](C)(O)CC[C@]4(C)[C@H]3CC[C@]12C` [Compound 1-17] the same measures were 150 to 250% and 150 to 250%.
For `CC(CCC(C)(C)O)[C@H]1CC[C@H]2[C@@H]3CC=C4C[C@@](C)(O)CC[C@]4(C)[C@H]3CC[C@]12C` (stereo partly shown) [Comparison compound 2, reference compound] the same measures were 75 to 150% and over 250%.
Turning to `C[C@H](CCC(O)C(F)(F)F)[C@H]1CC[C@H]2[C@@H]3CC=C4C[C@@](C)(O)CC[C@]4(C)[C@H]3CC[C@]12C` (stereo partly shown) [Compound 1-11], in test [1], the activation at 0.1 µM fell in the range of 150 to 250% and the activation at 1 µM was 150 to 250%.
On to `CC(O)CCC(C)[C@H]1CC[C@H]2[C@@H]3CC=C4C[C@@H](O)CC[C@]4(C)[C@H]3CC[C@]12C` (stereo partly shown) [Comparison compound 1, reference compound], for which, in test [1], the activation at 0.1 µM was 10 to 75% and the activation at 1 µM is 75 to 150%.
With `CCCC(C)(O)CC[C@@H](C)[C@H]1CC[C@H]2[C@@H]3CC=C4C[C@@](C)(O)CC[C@]4(C)[C@H]3CC[C@]12C` (stereo partly shown) [Compound 5-2], in test [1], the activation at 0.1 µM is 75 to 150% and the activation at 1 µM is 150 to 250%.
On to `CCCC(C)(O)CC[C@@H](C)[C@H]1CC[C@H]2[C@@H]3CC[C@H]4C[C@@](C)(O)CC[C@]4(C)[C@H]3CC[C@]12C` (stereo partly shown) [Compound 5-3], for which, in test [1], the activation at 0.1 µM lay in the range of 10 to 75% and the activation at 1 µM fell in the range of 75 to 150%.
The matching figures for `C[C@H](CCC(O)C(F)(F)F)[C@H]1CC[C@H]2[C@@H]3CC[C@H]4C[C@@](C)(O)CC[C@]4(C)[C@H]3CC[C@]12C` (stereo partly shown) [Compound 1-12]: 10 to 75% and 75 to 150%.
The matching figures for `CC(C)C(C)(O)CC[C@@H](C)[C@H]1CC[C@H]2[C@@H]3CC=C4C[C@@](C)(O)CC[C@]4(C)[C@H]3CC[C@]12C` (stereo partly shown) [Compound 8-2]: 75 to 150% and 150 to 250%.
For the compound `CCC(C)(O)CC[C@@H](C)[C@H]1CC[C@H]2[C@@H]3CC[C@H]4C[C@@](C)(O)CC[C@]4(C)[C@H]3CC[C@]12C` (stereo partly shown) [Compound 4-7], the “NMDA 1a2A (%) Potentiation 0.1 uM” value in test [1] (0.1 uM compound) is “B (“B” indicates potentiation of >75% to 150%)”. The “NMDA 1a2A (%) Potentiation 1 uM” value in test [1] (1 uM compound) is “C (“C” indicates potentiation of >150 to 250%)”.
With `C[C@H](CC[C@H](O)C(F)(F)F)[C@H]1CC[C@H]2[C@@H]3CC=C4C[C@@](C)(O)CC[C@]4(C)[C@H]3CC[C@]12C` [Compound 1-15], in test [1], the activation at 0.1 µM is 75 to 150% and the activation at 1 µM was in the range of 150 to 250%.
For `CCCCC(C)(O)CC[C@@H](C)[C@H]1CC[C@H]2[C@@H]3CC=C4C[C@@](C)(O)CC[C@]4(C)[C@H]3CC[C@]12C` (stereo partly shown) [Compound 7-2] the same measures were 10 to 75% and 75 to 150%.
For `CCC(C)(O)CC[C@@H](C)[C@H]1CC[C@H]2[C@@H]3CC=C4C[C@@](C)(O)CC[C@]4(C)[C@H]3CC[C@]12C` (stereo partly shown) [Compound 4-6], in test [1], the activation at 0.1 µM was in the range of 150 to 250% and the activation at 1 µM was in the range of 150 to 250%.
For `CCC[C@](C)(O)CC[C@@H](C)[C@H]1CC[C@H]2[C@@H]3CC[C@H]4C[C@@](C)(O)CC[C@]4(C)[C@H]3CC[C@]12C` [Compound 5-7], the activation at 10 µM in test [2] lay within 50 to 100%.
On the same count and under the same terms, the same measure for `CC[C@]1(O)CC[C@@]2(C)C(=CC[C@H]3[C@@H]4CC[C@H]([C@H](C)CC[C@H](O)C(F)(F)F)[C@@]4(C)CC[C@@H]32)C1` [Compound 2-8]: 50 to 100%.
On to `C[C@H](CC[C@@](C)(O)C1CC1)[C@H]1CC[C@H]2[C@@H]3CC=C4C[C@@](C)(O)CC[C@]4(C)[C@H]3CC[C@]12C` [Compound 9-3], for which the activation at 10 µM in test [2] lay within 50 to 100%.
Same read-out and setting: the same measure for `C[C@H](CC[C@](C)(O)C(F)(F)F)[C@H]1CC[C@H]2[C@@H]3CC=C4C[C@@](C)(O)CC[C@]4(C)[C@H]3CC[C@]12C` [Compound 3-5]: 10 to 50%.
Still for that read-out and setting: with `C[C@H](CC(F)(F)C(C)(C)O)[C@H]1CC[C@H]2[C@@H]3CC=C4C[C@@](C)(O)CC[C@]4(C)[C@H]3CC[C@]12C` [Compound 11-19] the figure was 10 to 50%; with `CCCC[C@@](C)(O)CC[C@@H](C)[C@H]1CC[C@H]2[C@@H]3CC=C4C[C@@](C)(O)CC[C@]4(C)[C@H]3CC[C@]12C` [Compound 7-5], 10 to 50%.
Still for that read-out and setting: with `CC[C@](C)(O)CC[C@@H](C)[C@H]1CC[C@H]2[C@@H]3CC[C@H]4C[C@@](C)(O)CC[C@]4(C)[C@H]3CC[C@]12C` [Compound 4-10] the figure was 10 to 50%; with `COCC[C@](C)(O)CC[C@@H](C)[C@H]1CC[C@H]2[C@@H]3CC[C@H]4C[C@@](C)(O)CC[C@]4(C)[C@H]3CC[C@]12C` [Compound 10-17], over 100%.
